Measured values: patent US20040102364A1, “Backbone cyclized radiolabelled somatostatin analogs” (priority 2001, published 2004)
Where two headings read alike, the source gives them in different places.

How the values were obtained:
SST-R2 = SST-R2 (Homo sapiens, UniProt P30874); assay: Inhibition of SRIF binding to SST-R2 (species not stated); conditions: SST-R2
Description: The SST analogs were tested for their potency in inhibition of the binding of ^125I-Tyr^11-SRIF (based on the method described by Raynor et. al., Molecular Pharmacology 43: 838, 1993) to membrane preparations expressing the transmembranal SST receptors (SST-R1, 2, 3, 4 or 5). The receptor preparations used for these tests were either from the cloned human receptors selectively and stably expressed in Chinese Hamster Ovary (CHO) cells or from cell lines naturally expressing the SST-Rs. […] The binding reactions were filtered, the filters were washed and the bound radioactivity was counted in β counter after addition of scintillation solution. […]

human cloned SST-R2 = target: T1, human cloned SST-R2 (Homo sapiens, UniProt P30874); assay: Inhibition of 125I-Tyr11-SRIF binding to cloned human SST-R2 membranes (CHO cells); conditions: human cloned receptor; read-out: Concentration (nM) of SST analogs to inhibit SRIF binding by 50%, SST-R 2
T1 construct: expressed in transfected cells; host or cells: CHO cells
Description: (§1) The SST analogs were tested for their potency in inhibition of the binding of ^125I-Tyr^11-SRIF (based on the method described by Raynor et. al., Molecular Pharmacology 43: 838, 1993) to membrane preparations expressing the transmembranal SST receptors (SST-R1, 2, 3, 4 or 5). The receptor preparations used for these tests were either from the cloned human receptors selectively and stably expressed in Chinese Hamster Ovary (CHO) cells or from cell lines naturally expressing the SST-Rs. […] The binding reactions were filtered, the filters were washed and the bound radioactivity was counted in β counter after addition of scintillation solution.

rat SST-R4 = rat SST-R4 (Rattus norvegicus, UniProt P30937); assay: Subtype selectivity binding, rat SST-R4
Description: as §1
(§2) MPS-30012-02, 30012-08 and 30012-24 were all re-synthesized naked, purified and radiolabelled with ^99mTc. In vitro binding studies on all three ^99mTc compounds was performed. 30012-05, 30012-08 and 30012-24 were screened for subtype selectivity analysis.

rat SST-R2 = rat SST-R2 (Rattus norvegicus, UniProt P30680); assay: Subtype selectivity binding, rat SST-R2
Description: as §1, §2

rat SST-R5 = target: T2, rat SST-R5 (Rattus norvegicus, UniProt P30938); assay: Subtype selectivity binding, rat SST-R5
T2 sequence (P30938 1-363): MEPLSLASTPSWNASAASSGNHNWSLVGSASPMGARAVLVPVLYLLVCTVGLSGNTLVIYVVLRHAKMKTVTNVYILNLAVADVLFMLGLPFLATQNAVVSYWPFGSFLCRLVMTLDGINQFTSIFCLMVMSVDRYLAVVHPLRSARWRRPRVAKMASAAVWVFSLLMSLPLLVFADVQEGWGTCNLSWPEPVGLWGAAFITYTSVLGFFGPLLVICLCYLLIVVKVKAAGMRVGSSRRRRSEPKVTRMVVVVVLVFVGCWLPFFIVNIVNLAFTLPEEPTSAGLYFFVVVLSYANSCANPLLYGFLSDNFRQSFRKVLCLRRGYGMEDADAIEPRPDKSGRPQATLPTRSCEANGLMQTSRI
Description: as §1, §2

rat SST-R1 = rat SST-R1 (Rattus norvegicus, UniProt P28646); assay: Subtype selectivity binding, rat SST-R1
Description: as §1, §2

rat SST-R3 = rat SST-R3 (Rattus norvegicus, UniProt P30936); assay: Subtype selectivity binding, rat SST-R3
Description: as §1, §2

[1] = # rows: determined in rat somatostatin receptors, read-out: Concentration (nM) of SST analogs to inhibit SRIF binding by 50%, SST-R 4
[2] = rat SST-R4, read-out: Selectivity: IC50, nM, rat SST-R-4
[3] = # rows: determined in rat somatostatin receptors, read-out: Concentration (nM) of SST analogs to inhibit SRIF binding by 50%, SST-R 2
[4] = rat SST-R2, read-out: Selectivity: IC50, nM, rat SST-R-2
[5] = # rows: determined in rat somatostatin receptors, read-out: Concentration (nM) of SST analogs to inhibit SRIF binding by 50%, SST-R 5
[6] = rat SST-R5, read-out: Selectivity: IC50, nM, rat SST-R-5
[7] = # rows: determined in rat somatostatin receptors, read-out: Concentration (nM) of SST analogs to inhibit SRIF binding by 50%, SST-R 1
[8] = rat SST-R1, read-out: Selectivity: IC50, nM, rat SST-R-1
[9] = # rows: determined in rat somatostatin receptors, read-out: Concentration (nM) of SST analogs to inhibit SRIF binding by 50%, SST-R 3
[10] = rat SST-R3, read-out: Selectivity: IC50, nM, rat SST-R-3

Sequence of SST-R2 (P30874 whole entry): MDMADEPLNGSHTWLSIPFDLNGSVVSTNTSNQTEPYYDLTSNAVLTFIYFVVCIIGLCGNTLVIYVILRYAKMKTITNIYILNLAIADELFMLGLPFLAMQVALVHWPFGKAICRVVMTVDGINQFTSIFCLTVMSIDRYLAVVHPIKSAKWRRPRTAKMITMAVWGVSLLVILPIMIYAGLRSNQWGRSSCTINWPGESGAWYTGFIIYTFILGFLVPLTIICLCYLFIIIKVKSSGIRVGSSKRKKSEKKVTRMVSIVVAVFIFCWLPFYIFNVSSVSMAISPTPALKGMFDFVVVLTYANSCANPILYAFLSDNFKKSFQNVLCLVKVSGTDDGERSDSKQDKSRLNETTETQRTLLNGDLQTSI
Sequence of rat SST-R2 (P30680 whole entry): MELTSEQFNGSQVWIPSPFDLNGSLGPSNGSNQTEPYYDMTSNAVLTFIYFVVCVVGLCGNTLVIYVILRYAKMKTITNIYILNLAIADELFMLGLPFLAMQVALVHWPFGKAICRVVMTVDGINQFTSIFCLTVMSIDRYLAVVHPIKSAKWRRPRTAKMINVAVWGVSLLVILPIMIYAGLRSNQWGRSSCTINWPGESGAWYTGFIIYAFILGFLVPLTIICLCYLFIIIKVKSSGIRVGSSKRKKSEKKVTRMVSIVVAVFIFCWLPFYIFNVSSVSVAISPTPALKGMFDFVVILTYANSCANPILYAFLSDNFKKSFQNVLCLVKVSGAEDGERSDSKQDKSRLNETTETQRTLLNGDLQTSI
Sequence of rat SST-R1 (P28646 whole entry): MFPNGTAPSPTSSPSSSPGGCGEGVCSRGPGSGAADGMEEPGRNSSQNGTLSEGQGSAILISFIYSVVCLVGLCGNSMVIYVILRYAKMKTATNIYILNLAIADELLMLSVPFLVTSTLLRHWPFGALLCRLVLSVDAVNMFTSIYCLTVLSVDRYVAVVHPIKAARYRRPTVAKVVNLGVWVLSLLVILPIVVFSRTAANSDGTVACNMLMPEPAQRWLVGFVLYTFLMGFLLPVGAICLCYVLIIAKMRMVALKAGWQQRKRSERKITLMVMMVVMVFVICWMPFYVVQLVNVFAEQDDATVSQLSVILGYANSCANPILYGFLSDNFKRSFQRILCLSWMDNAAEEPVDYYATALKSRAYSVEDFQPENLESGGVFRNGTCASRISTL
Sequence of rat SST-R3 (P30936 whole entry): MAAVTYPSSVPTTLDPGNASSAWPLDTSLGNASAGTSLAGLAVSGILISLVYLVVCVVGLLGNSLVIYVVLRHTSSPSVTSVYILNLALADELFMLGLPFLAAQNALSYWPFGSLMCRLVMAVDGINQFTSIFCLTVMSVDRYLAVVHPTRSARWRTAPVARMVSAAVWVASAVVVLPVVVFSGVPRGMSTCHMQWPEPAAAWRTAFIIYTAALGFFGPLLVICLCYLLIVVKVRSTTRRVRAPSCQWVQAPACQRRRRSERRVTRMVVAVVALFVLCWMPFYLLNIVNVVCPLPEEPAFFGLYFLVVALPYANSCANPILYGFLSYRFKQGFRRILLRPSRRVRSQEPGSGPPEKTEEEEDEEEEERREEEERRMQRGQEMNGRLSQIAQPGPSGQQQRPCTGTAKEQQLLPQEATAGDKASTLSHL
Sequence of rat SST-R4 (P30937 whole entry): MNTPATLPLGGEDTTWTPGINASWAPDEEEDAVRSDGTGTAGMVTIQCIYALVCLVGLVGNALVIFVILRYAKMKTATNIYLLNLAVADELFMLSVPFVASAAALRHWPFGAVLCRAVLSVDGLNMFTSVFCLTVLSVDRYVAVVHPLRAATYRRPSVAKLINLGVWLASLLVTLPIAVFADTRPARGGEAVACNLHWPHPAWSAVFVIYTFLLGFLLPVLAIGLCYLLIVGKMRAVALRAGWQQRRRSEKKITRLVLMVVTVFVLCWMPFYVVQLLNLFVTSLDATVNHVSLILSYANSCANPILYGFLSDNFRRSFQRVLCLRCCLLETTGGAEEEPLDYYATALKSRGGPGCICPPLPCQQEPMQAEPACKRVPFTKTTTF
T1 sequence (P30874 whole entry): as the sequence (P30874 whole entry) above

Row | Substance | SRIF Inhibited (%) 10 nM (SST-R2) [%] | SRIF Inhibited (%) 100 nM (SST-R2) [%] | IC50 (human cloned SST-R2) [nM] | IC50 (rat SST-R4; [1]) [nM] | IC50 (rat SST-R4; [2]) [nM] | IC50 (rat SST-R2; [3]) [nM] | IC50 (rat SST-R2; [4]) [nM] | IC50 (rat SST-R5; [5]) [nM] | IC50 (rat SST-R5; [6]) [nM] | IC50 (rat SST-R1; [7]) [nM] | IC50 (rat SST-R1; [8]) [nM] | IC50 (rat SST-R3; [9]) [nM] | IC50 (rat SST-R3; [10]) [nM] | binding to SST-R5 (in words) (rat SST-R5)
1 | In-DTPA-5-aminopentanoic acid-Phe(C3**)-Cys*-Phe-(D)Trp-Lys-Thr-Cys*-Phe(N3**)-NH2 [PTR 3353] | 14 | 59 | – | – | – | – | – | – | – | – | – | – | – | –
2 | In-DTPA-GABA-Phe(C3**)-Cys*-Phe-(D)Trp-Lys-Thr-Cys*-Phe(N3 **)-NH2 [PTR 3351] | 5 | 53 | – | – | – | – | – | – | – | – | – | – | – | –
3 | In-DTPA-Gly-Phe(C3**)-Cys*-Phe-(D)Trp-Lys-Thr-Cys*-Phe(N3**)-NH2 [PTR 3347] | 38 | 51 | – | – | – | – | – | – | – | – | – | – | – | –
4 | In-DTPA-b-Ala-Phe(C3**)-Cys*-Phe-(D)Trp-Lys-Thr-Cys*-Phe(N3**)-NH2 [PTR 3349] | 20 | 54 | – | – | – | – | – | – | – | – | – | – | – | –
5 | ReO-MA-Dpr(Gly)-Dab*-Phe-Trp-(D)Trp-Lys-Thr-Phe-GlyC3*-NH2 [PTR 3395] | – | – | 1.14 | – | – | – | – | – | – | – | – | – | – | –
6 | ReO-MA-Dpr(Gly)-Gly-Dab*-Phe-Trp-(D)Trp-Lys-Thr-Phe-GlyC3*-NH2 [ReO-3397] | – | – | – | 3.3 | 3.3 | 0.25 | 0.25 | 2.2 | 2.2 | 89 | 89 | 76 | 76 | –
7 | ReO-MA-Dpr(Gly)-βAla-Dab*-Phe-Trp-(D)Trp-Lys-Thr-Phe-GlyC3*-NH2 [PTR 3399] | – | – | – | 15 | 15 | 1.6 | 1.6 | 1.3 | 1.3 | 156 | 156 | 103 | 103 | binds
8 | ReO-MA-Gly-Gly-Gly-6-aminohexanoic acid-Dab*-Phe-Trp-(D)Trp-Lys-Thr-Phe-GlyC3*-NH2 [PTR 3401] | – | – | – | 20 | 20 | 0.44 | 0.44 | 3.7 | 3.7 | 402 | 402 | 110 | 110 | –
